Test results from patent US11273148B2, “Targeted epigenetic therapy for inherited aortic aneurysm condition” (The Johns Hopkins University, priority 2017, dated 2022).
“Also recorded” adds a separate entry of the source.

Tests used:
[1] = tested on: VSMC/Ski G34D/+ mice; experiment: Aortic root diameter and growth by echocardiography in C646-treated mice; type: in vivo, mouse; conditions: for Final absolute aortic root diameter: C646 5 mg/kg/day IP from 8 weeks of age; for Final absolute aortic root diameter / Final absolute aortic root growth rate: 12 weeks of treatment, +/−SEM; for Final absolute aortic root growth rate: C646 5 mg/kg/day IP
Method: (§1) C646 (Selleckchem, #S7152) was reconstituted in 10% DMSO (Sigma) dissolved in PBS, and administered daily by intraperitoneal (IP) injection at dose of 5 mg/kg/day. Treatment was initiated at 8 weeks of age and continued for 12 weeks. 10% DMSO in PBS was administered as a control.
Nair hair removal cream was used to remove fur from the anterior thorax of the mice the day prior to echocardiography. According to previously described with slight modifications (1), all echocardiography were performed on mice that were awake and unsedated with the use of the Vevo 2100 imaging system and 40 MHz transducer (Visualsonics). Mice were imaged at 8 weeks of age as a baseline and every 4 weeks thereafter, until 20 weeks of age. Mice aorta were imaged in the parasternal long-axis view. Three separate measurements of the maximal internal dimension at the sinus of Valsalva during systole were made in separate cardiac cycles and averaged. All imaging and analysis was performed blinded to genotype and treatment arm.

[2] = tested on: histone 3 lysine 27 acetylation (H3K27ac); experiment: Immunofluorescent detection of H3K27ac in aortic roots; type: in vivo, mouse; conditions: VSMC/Ski G34D/+ mice, C646 5mg/kg/day vs DMSO-treated
Method: For aorta frozen section, harvested aorta with heart was fixed in fresh 4% paraformaldehyde in PBS at 4 degree overnight and then placed in cold 30% sucrose in PBS solution and incubated at 4 degree overnight again. Tissue was then embedded in Tissue-Tek O.C.T compound ad snap-frozen in liquid nitrogen and stored at minus 80 degree until processed.
as §1
Immunofluorescence staining was performed as previous described (3). Frozen 10 μm long-axis view sections were obtained with a cryostat and mounted on glass slides. Sections were dried for at room temperature for overnight prior to staining. Sections were permeabilized in staining buffer (PBS containing 0.1% Triton-X 100) for 30 minutes and then incubated with Fc Receptor Block from Innovex for 30 minutes at room temperature, washed briefly in staining buffer, and then incubated again in blocking solution (0.1% Triton-X 100, 1:50 goat serum, 0.3M glycine) for 30 minutes. […]

[3] = tested on: TGFβ target genes; experiment: qPCR of TGFβ target genes in mouse aorta; type: in vivo; conditions: C646 treated vs DMSO treated VSMC/Ski G34D/+ mice
Source text: For quantitative RT-PCR and chromatin immunoprecipitation, mice aortic root and ascending aorta (above aortic root to the origin of right brachiocephalic trunk) harvested separately, snap-frozen in liquid nitrogen and stored at minus 80 degrees Celsius until processed. For RNA extraction, Aortas were homogenized in Trizol (ThermoFisher) by FastPrep-24 (MP Biomedicals, LLC.), as per the manufacturer's manual. After homogenization, RNA was extracted by RNeasy mini kit (QIAGEN), as per the manufacturer's manual. RNA samples were then stored once more at minus 80 degrees until quantitative RT-PCR experiment was performed.
C646 (Selleckchem, #S7152) was reconstituted in 10% DMSO (Sigma) dissolved in PBS, and administered daily by intraperitoneal (IP) injection at dose of 5 mg/kg/day. Treatment was initiated at 8 weeks of age and continued for 12 weeks. […]
Total RNA was isolated from mouse aortas or cultured cells by RNeasy mini kit (QIAGEN), as per the manufacturer's manual. Quantitative PCR was performed in triplicate with TaqMan Universal PCR Master Mix using an ABI Prism 7900 HT QPCR machine (all from Applied Biosystems), as per the manufacturer's manual. […] Reactions were run in triplicate, and relative quantification for each transcript was obtained by normalizing against housekeeping control transcript such as β-ACTIN (ACTB) according to the formula 2^−Ct/2^−Ct(ACTB).

[4] = tested on: VSMC/Ski G34D/+ mice; experiment: Aortic root histology (VVG and Masson-trichrome staining): wall thickness, elastin fiber disruptions; type: in vivo, mouse; conditions: for Final absolute aortic wall thickness / Final number of disruptions in elastin fiber architecture: C646 5 mg/kg/day IP, 12 weeks, aortic root sections, +/−SEM
Method: According to a previously described protocol with slight modification (1), mice that were analyzed for aortic histology had latex infused into the left ventricle through descending abdominal aorta. Mice were then fixed for 24 hours in 10% neutral buffered formalin and then switched into 70% ethanol until histological analysis was performed.
as §1
According to previously described protocols with slight modifications (1), latex-infused heart and aorta were removed from body and transected just below the level of the aortic annulus, and just above aortic root, and 2-3 mm transverse sections were mounted in 4% agar prior to paraffin fixation. Five micron aortic sections underwent Verhoeff-van Giesen (VVG) and Masson's Trichrome staining, and were imaged 40× magnification, using a Nikon Eclipse E400 microscope. Aortic wall thickness was measured of four sites of four representative sections for each mouse and the disruptions of elastin fiber architecture were counted in four sections every 25 micron from aortic annulus. All analyses were performed blinded to genotype and treatment arm and the results were averaged.

[5] = tested on: SGS patient fibroblasts; experiment: qPCR of TGFβ target genes in TGFβ1-stimulated primary human dermal fibroblasts; type: cell-based; conditions: for Expression level of COL3A1 and FN1 relative to β-actin / Expression level of SKI and SMAD7 relative to β-actin: control and SGS patient fibroblasts, vs vehicle treated
Method: Primary human dermal fibroblasts were derived from forearm skin biopsies of two controls and two patients with Shprintzen-Goldberg syndrome from previously described. The fibroblasts were cultured in Dulbecco's modified eagle medium (DMEM) with 10% fetal bovine serum (FBS) in the presence of antibiotics and passaged confluence. According to previously described protocols with slight modifications (2), all cell culture experiments were conducted in serum-starved media for 24 hours prior to drug treatment. Stimulation was performed using 10 ng/ml recombinant human TGFβ1 (R&D system). […] Cells were collected at baseline, 6 hours after TGFβ1 stimulation. RNA was extracted from the cells using Trizol (ThermoFisher) by RNeasy mini kit (QIAGEN), as per the manufacturer's manual.
Total RNA was isolated from mouse aortas or cultured cells by RNeasy mini kit (QIAGEN), as per the manufacturer's manual. Quantitative PCR was performed in triplicate with TaqMan Universal PCR Master Mix using an ABI Prism 7900 HT QPCR machine (all from Applied Biosystems), as per the manufacturer's manual. The following prevalidated TaqMan probes were used to detect specific transcripts: Mm00801666_g1 (Collal), Mm01254476_m1 (Col3A1), Mm01256744_m1 (Fn1), Mm04205640_g1 (Cdkn1a), Mm01192932_g1 (Ctgf), and Mm00435860_m1 (Serpine1), Mm00448744_m1 (Ski), Mm00456917_m1 (Skil), Mm00484742_m1 (Smad7) and Mm00607939_s1 (Actb) (Life Technologies). For human samples, the following probes were used: Hs00943809_m1 (COL3A1), Hs00365052_m1 (FN1), Hs00161707_m1 (SKI), Hs01045418_m1 (SKIL) and Hs01060665_g1 (ACTB). Reactions were run in triplicate, and relative quantification for each transcript was obtained by normalizing against housekeeping control transcript such as β-ACTIN (ACTB) according to the formula 2^−Ct/2^−Ct(ACTB).

[6] = C646 2004 for 24 hours pre-treated before TGFβ1 stimulation
[7] = C646 2004 for 24 hours pre-treated before TGFβ1 stimulation (10 ng/ml for 6 hours)
[8] = SD208 10 μM for 1 hour pre-treated before TGFβ1 stimulation (10 ng/ml for 6 hours)

Structure (SMILES) | Aortic root diameter (in words) ([1]; C646 treated vs DMSO treated VSMC/Ski G34D/+ mice, echocardiogram) | Final absolute aortic root diameter ([1]; Control mice, echocardiogram) | Final absolute aortic root growth rate ([1]; Control mice) | Final absolute aortic root diameter ([1]; VSMC/Ski G34D/+ mice, echocardiogram) | Final absolute aortic root growth rate ([1]; VSMC/Ski G34D/+ mice) | Aneurysm progression ([1]; systemically-administered C646 in Ski VSMC:G34D/+ mice) | H3K27 acetylation in aortic root [2] | Expression levels of TGFβ target genes relative to β-actin in aorta [3] | Aortic wall architecture: medial thickening, elastic fiber fragmentation, collagen deposition (in words) ([4]; C646 treated vs DMSO treated VSMC/Ski G34D/+ mice, VVG and Masson-trichrome staining) | Final absolute aortic wall thickness ([4]; Control mice) | Final number of disruptions in elastin fiber architecture ([4]; Control mice) | Final absolute aortic wall thickness ([4]; VSMC/Ski G34D/+ mice) | Final number of disruptions in elastin fiber architecture ([4]; VSMC/Ski G34D/+ mice) | Difference of COL3A1 and FN1 expression level between C646 treated SGS patient fibroblast and vehicle treated control fibroblasts [5, 6] | Difference of SKI expression level between C646 treated SGS patient fibroblast and vehicle treated control fibroblast [5, 6] | TGFβ target gene expression in SGS patient fibroblasts ([5]; comparable efficiency of a TGFβ type I receptor (Alk5) kinase inhibitor) | Expression level of COL3A1 and FN1 relative to β-actin [5, 7] | Expression level of SKI and SMAD7 relative to β-actin [5, 7] | Expression level of COL3A1 and FN1 relative to β-actin [5, 8] | Expression level of SKI and SMAD7 relative to β-actin [5, 8]
CC1=NN(c2ccc(C(=O)O)cc2)C(=O)C1=Cc1ccc(-c2cc(C)c(C)cc2[N+](=O)[O-])o1 (stereo in doubt) [C646, 4-[(4Z)-4-[[5-(4,5-dimethyl-2-nitrophenyl)furan-2-yl]methylidene]-3-methyl-5-oxopyrazol-1-yl]benzoic acid] | normalized aortic root diameter; also recorded: rescued aortic root diameter | 1.686+/−0.024 mm | 0.067+/−0.023 mm/12 weeks | 1.848+/−0.045 mm | 0.119+/−0.042 mm/12 weeks | abrogates aneurysm progression; also recorded: prevented aneurysm progression | decreased H3K27 acetylation; also recorded: prevention of excessive Histone 3 Lysine 27 (H3K27) acetylation | decreased expression levels of TGFβ target genes except COL1A1, SKI and SKIL; also recorded: normalizes gene expression in the aorta; also recorded: normalization of the TSR | reduced medial thickening and elastic fiber fragmentation and the recovered collagen deposition; also recorded: preserves aortic wall architecture; also recorded: preservation of aortic wall architecture | 58.547+/−1.415 μm | 1+/−0.577 | 63.438+/−1.818 μm | 6+/−1.155 | no significant difference | no significant difference | normalized TGFβ target gene expression | significantly decreased expression level | significantly decreased expression level |  | 
Fc1ccc(Cl)cc1-c1nc(Nc2ccncc2)c2nccnc2n1 [SD208] |  |  |  |  |  |  |  |  |  |  |  |  |  |  |  |  |  |  | significantly decreased expression level | significantly decreased expression level
